Among the data in US20240246964A1 (Arbutus Biopharma Corporation, priority 2021, published 2024) are EC50 values, retold here.

Usually EC50 stands for the concentration giving half of the maximal effect. A higher EC50 goes with a need for much substance.

For the assay, the target named is human PD-L1 (Homo sapiens (Human), UniProt Q9NZQ7). In words: T cell activation luciferase reporter cell culture system (T Cell Activation Assay). The format is cell-based. As to conditions: luciferase reporter assay; PD-L1 aAPC/CHO-K1 cells with PD-1 effector Jurkat T cells.
human PD-L1, sequence (Q9NZQ7 19-290): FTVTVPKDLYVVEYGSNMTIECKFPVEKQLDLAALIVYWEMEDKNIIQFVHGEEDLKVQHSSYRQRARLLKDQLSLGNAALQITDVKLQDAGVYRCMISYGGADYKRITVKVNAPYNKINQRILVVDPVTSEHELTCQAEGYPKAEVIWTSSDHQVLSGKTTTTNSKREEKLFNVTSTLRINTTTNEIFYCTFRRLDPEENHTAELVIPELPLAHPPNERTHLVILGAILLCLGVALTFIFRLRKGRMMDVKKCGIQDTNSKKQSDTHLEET
In turn, `COc1cc(-c2nccc(-c3cccc(-c4ccc(CNC5CCN(C(C)=O)CC5)c(OC)n4)c3Cl)c2Cl)ccc1CN1CC2(CNC(=O)C2)C1` [Example 244, 2-(4-(4-(3-(5-(((1-acetylpiperidin-4-yl)amino)methyl)-6-methoxypyridin-2-yl)-2-chlorophenyl)-3-chloropyridin-2-yl)-2-methoxybenzyl)-2,6-diazaspiro[3.4]octan-7-one] showed an EC50 of 25.2 nM. In the case of `COc1cc(-c2nccc(-c3cccc(-c4ccc(CNC5CCN(C(C)=O)CC5)c(OC)n4)c3Cl)c2Cl)ccc1CN1CC[C@H](C(=O)OC(C)C)C1` [Example 245, Isopropyl (S)-1-(4-(4-(3-(5-(((1-acetylpiperidin-4-yl)amino)methyl)-6-methoxypyridin-2-yl)-2-chlorophenyl)-3-chloropyridin-2-yl)-2-methoxybenzyl)pyrrolidine-3-carboxylate], the response was half-maximal at 187 nM (EC50). `COc1cc(-c2nccc(-c3cccc(-c4ccc5c(CNC6CCN(C(C)=O)CC6)cn(C)c5n4)c3Cl)c2Cl)ccc1CNC1CCN(C(C)=O)CC1` [Example 246, 1-(4-((4-(4-(3-(3-(((1-acetylpiperidin-4-yl)amino)methyl)-1-methyl-1H-pyrrolo[2,3-b]pyridin-6-yl)-2-chlorophenyl)-3-chloropyridin-2-yl)-2-methoxybenzyl)amino)piperidin-1-yl)ethan-1-one] gave an EC50 of 101 nM. In turn, `COc1nc(-c2ccnc(-c3cccc4c3CC[C@@H]4Oc3nc(OC)c(CN4CC5(C4)CN(C(C)=O)C5)cc3C(F)(F)F)c2Cl)ccc1CN1CC2(C1)CN(C(C)=O)C2` [Example 248, (S)-1-(6-((6-((4-(5-((6-Acetyl-2,6-diazaspiro[3.3]heptan-2-yl)methyl)-3′-chloro-6-methoxy-[2,4′-bipyridin]-2′-yl)-2,3-dihydro-1H-inden-1-yl)oxy)-2-methoxy-5-(trifluoromethyl)pyridin-3-yl)methyl)-2,6-diazaspiro[3.3]heptan-2-yl)ethan-1-one] registered an EC50 of 596 nM. This EC50 is about 5.9-fold higher than that of the molecule before. `COc1cc(-c2nccc(-c3cccc(-c4ccc(CN5CC6(C5)CN(C(C)=O)C6)c(OC)n4)c3Cl)c2Cl)cc2c1CN(CCCF)CC2` [Example 249, 1-(6-((6-(2-Chloro-3-(3-chloro-2-(2-(3-fluoropropyl)-8-methoxy-1,2,3,4-tetrahydroisoquinolin-6-yl)pyridin-4-yl)phenyl)-2-methoxypyridin-3-yl)methyl)-2,6-diazaspiro[3.3]heptan-2-yl)ethan-1-one]: the half-maximal effective concentration (EC50) is 81.7 nM.

Regarding `COc1cc(-c2nccc(-c3cccc(-c4ccc(CN5CC6(CNC(=O)C6)C5)c(OC)n4)c3Cl)c2Cl)cc2c1CN(CCCF)CC2` [Example 250, 2-((6-(2-Chloro-3-(3-chloro-2-(2-(3-fluoropropyl)-8-methoxy-1,2,3,4-tetrahydroisoquinolin-6-yl)pyridin-4-yl)phenyl)-2-methoxypyridin-3-yl)methyl)-2,6-diazaspiro[3.4]octan-7-one], the EC50 turned out to be 31 nM. Then `COc1cc(-c2nccc(-c3cccc(-c4ccc(CNC5CC6(COC6)C5)c(OC)n4)c3Cl)c2Cl)cc2c1CN(CCCF)CC2` [Example 251, N-((6-(2-Chloro-3-(3-chloro-2-(2-(3-fluoropropyl)-8-methoxy-1,2,3,4-tetrahydroisoquinolin-6-yl)pyridin-4-yl)phenyl)-2-methoxypyridin-3-yl)methyl)-2-oxaspiro[3.3]heptan-6-amine], with 117 nM.

For `COc1cc(-c2nccc(-c3cccc(-c4ccc(CNCC5(CO)CC5)c(OC)n4)c3Cl)c2Cl)cc2c1CN(CCCF)CC2` [Example 252, (1-((((6-(2-Chloro-3-(3-chloro-2-(2-(3-fluoropropyl)-8-methoxy-1,2,3,4-tetrahydroisoquinolin-6-yl)pyridin-4-yl)phenyl)-2-methoxypyridin-3-yl)methyl)amino)methyl)cyclopropyl)methanol], the concentration for a half-maximal effect (EC50) was 54 nM.
